pIC50: −log10 of the molar value. Like-named read-outs stand apart in the source and are kept apart here.

One assay concerns IRC-I-XL. The experiment in a line: CellTiter-Glo cell viability, IRC-I-XL primary CRC cell line (LMNA-NTRK1). Format: cell-based, human. The settings on record: LMNA-NTRK1 fusion, 72 h, read-out: IC50 against IRC-I-XL cell line. The source says:
(§1) NTRK fusion-positive colorectal cancer cell lines IRC, Kor1, and KM12 were utilized. The IRC and the KM12 cell lines were obtained from Dr. Bardelli and cultured according to the described protocols. The Kor1 cell line was obtained from Lee et al. and cultured on laminin pre-treated plates in RPMI media supplemented with 10% Fetal Bovine Serum (FBS). All cell lines were authenticated by STR and periodically screened for the presence of mycoplasma. For the mutant models, two human-derived colorectal cancer cell lines (IRC) and two mouse-derived glioma models (NLS) were used. […] Sequencing of the double mutant cell line was performed using MSK-IMPACT [25]. IRC primary cell lines were cultured with DMEM/F12 50:50 Mix (Corning) supplemented with 10% FBS. NLS Bcan-Ntrk1 Trka G598R and Bcan-Ntrk1 Trka G670C single mutants as well as double mutants NLS Bcan-Ntrk1 Trka G598R/G670A and NLS Bcan-Ntrk1 Trka G598R/G670C isogenic models were established using CRISPR/Cas9 to knock-in TRKA solvent-front and xDFG mutations into tumor cells derived from a Bcan-Ntrk1-driven glioma mouse model. Trka G598R is the mouse ortholog to human TRKA G595R while Trka G670A and Trka G670C are the mouse ortholog to human TRKA G667A and TRKA G667C, respectively. Mouse p53 ^−/^− Bcan-Ntrk1 glioma cells were plated on laminin-coated plates and cultured with Neurocult Stem Cell Basal Media with Proliferation Supplements (Stem Cell Technologies). […]
(§2) CellTiter-Glo Cell Viability Assays (Promega) and crystal violet clonogenic assays were performed on primary NTRK fusion-positive colorectal cancer cell lines, mouse Ba/F3 cell lines and isogenic mouse glioma cell lines. […] Absorbance was read at 490 nm in accordance with Promega’s protocol. […]
(§3) Statistical analyses were conducted using GraphPad Prism 9 (GraphPad Software Inc.). […] Measurements were assessed for normal distribution and homogeneity of variance using appropriate tests and were analyzed using analysis of variance or T-Tests, and nonparametric tests were used for non-normal distributed data. […]

A further assay deals with Kor1. The assay can be described thus: CellTiter-Glo cell viability, Kor1 primary CRC cell line (TPM3-NTRK1). The following applies: TPM3-NTRK1 fusion, 72 h, read-out: IC50 against Kor1 cell line. It counts as cell-based, human.
Excerpt: as §1, §2, §3

A further assay has as its system Ba/F3 LMNA-NTRK1-A608D. The experiment in a line: Ba/F3 cell viability (anti-proliferative activity). Format: cell-based, mouse. The source says: (§4) NTRK fusion-positive colorectal cancer cell lines IRC, Kor1, and KM12 were utilized. The IRC and the KM12 cell lines were obtained from Dr. Bardelli and cultured according to the described protocols. The Kor1 cell line was obtained from Lee et al. and cultured on laminin pre-treated plates in RPMI media supplemented with 10% Fetal Bovine Serum (FBS). All cell lines were authenticated by STR and periodically screened for the presence of mycoplasma. For the mutant models, two human-derived colorectal cancer cell lines (IRC) and two mouse-derived glioma models (NLS) were used. […] Sequencing of the double mutant cell line was performed using MSK-IMPACT [25]. IRC primary cell lines were cultured with DMEM/F12 50:50 Mix (Corning) supplemented with 10% FBS. NLS Bcan-Ntrk1 Trka G598R and Bcan-Ntrk1 Trka G670C single mutants as well as double mutants NLS Bcan-Ntrk1 Trka G598R/G670A and NLS Bcan-Ntrk1 Trka G598R/G670C isogenic models were established using CRISPR/Cas9 to knock-in TRKA solvent-front and xDFG mutations into tumor cells derived from a Bcan-Ntrk1-driven glioma mouse model. Trka G598R is the mouse ortholog to human TRKA G595R while Trka G670A and Trka G670C are the mouse ortholog to human TRKA G667A and TRKA G667C, respectively. Mouse p53 ^−/^− Bcan-Ntrk1 glioma cells were plated on laminin-coated plates and cultured with Neurocult Stem Cell Basal Media with Proliferation Supplements (Stem Cell Technologies). Ba/F3 cell lines stably expressing WT and mutant versions (i.e. G595R, G667C/A, V573M, F589L, F633L, F617L, G623R/E, G639R, G696A/C, G709C, V608D/M) of human TRKA, TRKB or TRKC were generated using either lentiviral transduction or standard transfection methods by a contract research organization (Kyinno, Beijing, China).
(§5) CellTiter-Glo Cell Viability Assays (Promega) and crystal violet clonogenic assays were performed on primary NTRK fusion-positive colorectal cancer cell lines, mouse Ba/F3 cell lines and isogenic mouse glioma cell lines. For the CellTiter-Glo assays, three biological replicates were performed, with each condition being assayed in triplicate determinations. Cells were seeded in a 96-well plate in the afternoon at optimal density. […] Plates were removed from the incubator 72 h later and CellTiter-Glo reagent was added. Absorbance was read at 490 nm in accordance with Promega’s protocol. Data is presented as a survival percentage on the y-axis (mean ± STDEV) normalized to the control DMSO-treated cells deemed 100% viable. Drug concentrations on the x-axis are represented as a base 10 logarithm (LOG). For the crystal violet assays, cells were seeded in a 24-well plate at optimal densities in the afternoon. […] Crystal violet plates were removed from the incubator 72 h later, washed with PBS, fixed with 4% paraformaldehyde for 15 min, and stained with crystal violet for 10 min. Crystal violet was washed off and plates were left to dry prior to imaging. Clonogenic assays were performed in three biological replicates.
(§6) Statistical analyses were conducted using GraphPad Prism 9 (GraphPad Software Inc.). For CellTiter-Glo assays, raw data obtained were normalized to the DMSO control utilizing Microsoft Excel. […] Data is presented as the mean ± standard deviation (STDEV) of all replicates. Measurements were assessed for normal distribution and homogeneity of variance using appropriate tests and were analyzed using analysis of variance or T-Tests, and nonparametric tests were used for non-normal distributed data. Animal studies utilized five arms with six or eight mice per arm. A Kaplan–Meier test was used to assess lifespan characteristics and for comparison between groups. Median survivals were obtained using GraphPad Prism 9. Sample size was based on statistical power analysis to ensure sufficient capability to detect a pre-specified effect size. We assumed a moderate effect size, with an alpha level set at 0.05, and a power (1-β) set at 0.80.

For the next assay, the system named is Ba/F3 LMNA-NTRK1-F589L. The assay can be described thus: Ba/F3 cell viability (anti-proliferative activity). Format: cell-based, mouse.
Excerpt: as §4, §5, §6

The subject of another assay is Ba/F3 LMNA-NTRK1-G595R. The experiment in a line: Ba/F3 cell viability (anti-proliferative activity). It counts as cell-based, mouse.
Excerpt: as §4, §5, §6

The test system of another assay is Ba/F3 LMNA-NTRK1-G667A. The assay can be described thus: Ba/F3 cell viability (anti-proliferative activity). Format: cell-based, mouse.
Excerpt: as §4, §5, §6

The next assay relates to Ba/F3 LMNA-NTRK1-G667C. The assay can be described thus: Ba/F3 cell viability (anti-proliferative activity). Format: cell-based, mouse.
Excerpt: as §4, §5, §6

A further assay concerns Ba/F3 LMNA-NTRK1. The assay can be described thus: Ba/F3 cell viability (anti-proliferative activity). It counts as cell-based, mouse.
Excerpt: as §4, §5, §6

The next assay concerns Ba/F3-LMNA-NTRK1-V573M. The experiment in a line: Ba/F3 cell viability (anti-proliferative activity). Format: cell-based, mouse.
Excerpt: as §4, §5, §6

A further assay relates to Ba/F3 LMNA-NTRK1-G667S. The experiment in a line: Ba/F3 cell viability (anti-proliferative activity). Format: cell-based, mouse.

For the compound `O=C(Nc1cnn2ccc(N3CCC[C@@H]3c3cc(F)ccc3F)nc12)N1CC[C@H](O)C1` [Larotrectinib, larotrectinib], the negative-log IC50 (pIC50) in the assay on IRC-I-XL (Homo sapiens) is 7.87; with Kor1 (Homo sapiens) it was 7.61; in the assay on Ba/F3 LMNA-NTRK1-A608D (Mus musculus, BaF3), 7.71; with Ba/F3 LMNA-NTRK1-F589L (Mus musculus, BaF3), 6.21; in the assay on Ba/F3 LMNA-NTRK1-G595R (Mus musculus, BaF3), 5.49; with Ba/F3 LMNA-NTRK1-G667A (Mus musculus, BaF3), 6.93. Moreover, the pIC50 is 5.86 in the assay on Ba/F3 LMNA-NTRK1-G667C (Mus musculus, BaF3); 7.66 in the assay with Ba/F3 LMNA-NTRK1 (Mus musculus, BaF3); 7.34 in the assay on Ba/F3-LMNA-NTRK1-V573M (Mus musculus, BaF3); 5.50 with Ba/F3 LMNA-NTRK1-G667S (Mus musculus, BaF3).

As for `C[C@@H]1CCc2ncc(F)cc2[C@H]2CCCN2c2ccn3ncc(c3n2)C(=O)N1` [Selitrectinib, selitrectinib], the negative-log IC50 (pIC50) with IRC-I-XL (Homo sapiens) is 8.34; in the assay on Kor1 (Homo sapiens), 7.89; with Ba/F3 LMNA-NTRK1-A608D (Mus musculus, BaF3), 8.50; in the assay with Ba/F3 LMNA-NTRK1-F589L (Mus musculus, BaF3) it was 7.33; in the assay on Ba/F3 LMNA-NTRK1-G595R (Mus musculus, BaF3) it was 7.74; in the assay with Ba/F3 LMNA-NTRK1-G667A (Mus musculus, BaF3), 7.68. Further, the pIC50 is 6.79 in the assay on Ba/F3 LMNA-NTRK1-G667C (Mus musculus, BaF3); 8.47 with Ba/F3 LMNA-NTRK1 (Mus musculus, BaF3); 8.26 with Ba/F3-LMNA-NTRK1-V573M (Mus musculus, BaF3); 6.27 in the assay with Ba/F3 LMNA-NTRK1-G667S (Mus musculus, BaF3).

Consider zurletrectinib, for which the pIC50 in the assay on IRC-I-XL was 9.33; in the assay with Kor1, 8.14; in the assay on Ba/F3 LMNA-NTRK1-A608D it was 8.93; in the assay with Ba/F3 LMNA-NTRK1-F589L it was 7.39; in the assay on Ba/F3 LMNA-NTRK1-G595R, 7.96; in the assay with Ba/F3 LMNA-NTRK1-G667A, 8.28. Further, the pIC50 was 7.41 in the assay on Ba/F3 LMNA-NTRK1-G667C, 8.92 with Ba/F3 LMNA-NTRK1, 8.63 in the assay on Ba/F3-LMNA-NTRK1-V573M and 6.71 in the assay with Ba/F3 LMNA-NTRK1-G667S.

Source of the values: publication PMC11300601, “Zurletrectinib is a next-generation TRK inhibitor with strong intracranial activity against NTRK fusion-positive tumours with on-target resistance to first-generation agents” (British Journal of Cancer, 2024).
